According to patent publication US20210145972A1, “NAN[…] A NUCLEIC ACID SCAFFOLD AND VIRUS-BINDING PEPTIDE MOIETIES” (FRAUNHOFER-GESELLSCHAFT ZUR FÖRDERUNG DER ANGEWANDTEN …, priority 2017, published 2021):
Entries after “also recorded” stand apart in the source; their conditions may differ. Ends that are not written are not given here.

Assays:
[1] = test system: Dengue virus 2; experiment: Focus formation assay; format: cell-based
Method: The inhibition of Dengue virus 2 by DET4 peptides and DET4 coupled to DNA nanostructures was investigated by focus formation assay. Target cells were seeded in a 96-well plate the day before infection. In a separate 96 well plate 200-500 virus particles per well were incubated with or without DET4 monomers and DET4-coupled DNA Trimers in different concentrations for 2 hours followed by transfer of the mixtures to confluent target cell monolayers and incubation for 1 h at 37° C.
Subsequently fresh DMEM/2% (v/v) FBS containing 1.6% (w/v) Avicell was added to each well, covering the surface with microcrystalline cellulose to avoid spreading of the virus in the medium and enhancing formation of virus foci. Infected cells were incubated for 4 days followed by washing with PBS and fixing with 70% ethanol. Cells were rinsed with phosphate buffered saline, pH 7.4 (PBS) prior to immunostaining. Virus foci were detected using an Anti-flavivirus mouse monoclonal antibody that recognizes Dengue viruses, followed by horseradish peroxidase-conjugated goat anti-mouse immunoglobulin, and developed using TMB chromogen substrate. After washing, Virus foci were visible in the wells as blue spots that were counted for quantitative analysis. Counting results are presented in the table 1.

[2] = test system: Dengue virus; details: read-out: virus entry into host cells inhibited by 50% (IC50); cited from earlier work
[3] = test system: influenza A infection of MDCKII cells; experiment: Infection inhibition assay using MDCKII cells (cytopathic effect); format: cell-based
Method: Also preferred is an infection inhibition assay. The infection inhibition assay using MDCKII cells and the MTT Test (or MTS). Inhibitor (peptide-conjugates DNA nanostructure) and virus are pre-incubated for 10-30 min at room temperature and added to cells (MDCKII for influenza, Vero E6 for Dengue). Viral infection of host cells can be tested after 24-72 h by either crystal violet staining or MTT/MTS reagents. Infected cells will slow down their metabolism and/or die after a certain time.
The inhibition of the influence virus by different DNA scaffolds together with PeB is shown. It can be seen from SPR data in FIG. 8 that the binding of virus particles is increased when more peptides are presented on the DNA scaffold. […] No binding to the virus particles is seen when they are not carrying any peptides.
FIG. 14A: Infection inhibition assay using MDCKII cells. This is a microscopic image of MDCKII cells. The cells form a healthy monolayer. No cytopathic effect (CPE) is seen.
FIG. 14b: Infection inhibition assay using MDCKII cells. This is a microscopic image of MDCKII cells infected with influenza viruses. The cells begin to die. A cytopathic effect (CPE) (rounding up and small aggregations of the cells) is clearly seen.

[4] = molecular target: influenza A hemagglutinin (Influenza A virus, UniProt P03437); details: read-out: dissociation constant KD with hemagglutinin; cited from earlier work
[5] = test system: inactivated influenza A virus; format: binding; details: flow cell 4 vs flow cell 2
[6] = test system: influenza A viruses; experiment: Hemagglutination inhibition assay (HAI); format: cell-based; details: dilution series, constant virus and blood, FIGS. 11-13

AGVKDGKLDF [DET4]
inhibition of Dengue virus infection of target cells, result in words [1]: not able to inhibit viral infection
virus foci counted ([1]; 10 μM): 53
virus foci counted ([1]; 50 μM): 47
virus foci counted ([1]; 100 μM): 46
IC50 [2]: 35 µM

ARDFYDYDVFYYAMD [PeB, reference compound]
inhibition of infection / cytopathic effect ([3]; 500 μM): more significant cytopathic effect; also recorded: not enough to inhibit the infection
Kd [4]: 56.8 µM

DNA 4-arm structure with 3×PeB: mimics the N structure with a fourth arm bearing biotin, carrying 3×PeB (ARDFYDYDVFYYAMD; also: stated molecule is a DNA 4-arm structure with biotin arm carrying 3×PeB)
dissociation time compared to the simple DNA double-strand (SPR) [5]: slower dissociation time

B1: DNA-PeB3: three-branched DNA scaffold of three DNA strands (SEQ ID NOs 2-4) with three PeB peptide moieties, one per strand end (conjugate)
DNA 1: ACTATCTTTGGTCTATTATCTTGAGTCATC
DNA 2: TAGTTGTGTGTGTGTTAGACCAAAGATAGT
DNA 3: GATGACTCAAGATAAACACACACACAACTA
modifications: DNA, backbone and methylation of C not given here; PeB peptide conjugated at one end of each strand
inhibition of virus binding to RBCs (HAI), result in words [6]: able to inhibit binding of the influenza A virus to red blood cells
inhibition of virus binding to RBCs (HAI), result in words ([6]; listed as N): concentration-dependent increase in binding
inhibition of virus binding to RBCs (HAI), result in words ([6]; listed as N_3×PeB): RBCs forming a dot on the bottom of the well can be seen for high concentrations; also recorded: hinder the viruses from binding to RBCs
inhibition of infection / cytopathic effect ([3]; 11 μM, listed as N with 3 peptides): clear inhibition
inhibition of infection / cytopathic effect ([3]; 11 μM, listed as Trimer “N” with 3×PeB): Virus infection was inhibited
